Experimental findings from patent US20260226061A1, “COMPOSITIONS USEFUL FOR MODULATING SPLICING” (Skyhawk Therapeutics, Inc., priority 2023, published 2026) are described below.

This experiment deals with ATXN3 pre-mRNA. The experiment in a line: ATXN3 Quantitative Splicing Assay (qPCR, E4E5 primers/probe, transcripts containing exon 4). It counts as cell-based. To be noted: Human neuroblastoma SK-N-MC cells, 24 h treatment, 30 μM to 0.6 nM; read-out: ATXN3 Potency - Splicing E4E5 IC50. The procedure: Human neuroblastoma SK-N-MC cells were plated in 384-well plates at 20,000 cells/well. Twenty-four hours after plating, cells were treated with compounds for 24 h at appropriate concentrations ranging from 30 μM to 0.6 nM (0.3% DMSO). Treated cells were lysed in 15 μL of lysis buffer, and cDNA was synthesized using the Fast Advanced Cells-to-Ct kit. Two μL of each cDNA was used in qPCR reactions to confirm the exon 4 skipped transcripts of ATXN3. A second set of primers/probe E4E5 was used to detect the transcripts containing exon 4. The third set of primers/probe E8E9 was used to detect total gene level of ATXN3. The qPCR reactions were prepared in 384-well plates in 10 μL volume, using TaqMan™ Fast Advanced Master Mix with primers and probes shown in the table below. Reactions were run in a Quant Studio 6 qPCR instrument with default settings.
The primers and probes are listed below in Table 3.
As for `C[C@H](F)[C@H](N)Cc1cc2c(NCc3ccc(F)cc3)nc(Cl)nn2c1Br` [Compound 1, 6-((2R,3S)-2-amino-3-fluorobutyl)-7-bromo-2-chloro-N-(4-fluorobenzyl)pyrrolo[2,1-f][1,2,4]triazin-4-amine], the IC50 was in the range of 0.501 to 5 µM.
As for `C[C@H](F)[C@H](N)Cc1cc2c(NCc3ccc(F)cc3)nc(Cl)nn2c1Cl` [Compound 2, 6-((2R,3S)-2-amino-3-fluorobutyl)-2,7-dichloro-N-(4-fluorobenzyl)pyrrolo[2,1-f][1,2,4]triazin-4-amine], the IC50 was 0.501 to 5 µM.
Regarding `C[C@H](F)[C@H](N)Cc1cc2c(NCc3ccccc3)nc(Cl)nn2c1Br` [Compound 3, 6-((2R,3S)-2-amino-3-fluorobutyl)-N-benzyl-7-bromo-2-chloropyrrolo[2,1-f][1,2,4]triazin-4-amine], the IC50 was 0.101 to 0.5 µM.
Regarding `C[C@H](F)[C@H](N)Cc1cc2c(NCc3ccccc3F)nc(Cl)nn2c1Br` [Compound 4, 6-((2R,3S)-2-amino-3-fluorobutyl)-7-bromo-2-chloro-N-(2-fluorobenzyl)pyrrolo[2,1-f][1,2,4]triazin-4-amine], the IC50 is 0.101 to 0.5 µM.
With `C[C@H](F)[C@H](N)Cc1cc2c(NCc3ccccc3F)nc(Cl)nn2c1Cl` [Compound 5, 6-((2R,3S)-2-amino-3-fluorobutyl)-2,7-dichloro-N-(2-fluorobenzyl)pyrrolo[2,1-f][1,2,4]triazin-4-amine], the IC50 lay in the range of 0.101 to 0.5 µM.
With `C[C@H](F)[C@H](N)Cc1cc2c(NCc3ccccc3)nc(Cl)nn2c1Cl` [Compound 6, 6-((2R,3S)-2-amino-3-fluorobutyl)-N-benzyl-2,7-dichloropyrrolo[2,1-f][1,2,4]triazin-4-amine] the figure was 0.101 to 0.5 µM.
As to `Cc1c(C[C@@H](N)[C@H](C)F)cc2c(NCc3ccccc3)nc(Cl)nn12` [Compound 7, 6-((2R,3S)-2-amino-3-fluorobutyl)-N-benzyl-2-chloro-7-methylpyrrolo[2,1-f][1,2,4]triazin-4-amine], the IC50 was 0.501 to 5 µM.
On to `Cc1c(C[C@@H](N)[C@H](C)F)cc2c(NCc3ccccc3F)nc(Cl)nn12` [Compound 8, 6-((2R,3S)-2-amino-3-fluorobutyl)-2-chloro-N-(2-fluorobenzyl)-7-methylpyrrolo[2,1-f][1,2,4]triazin-4-amine], for which the half-maximal inhibitory concentration (IC50) is 0.101 to 0.5 µM.
On to `N[C@H](Cc1cc2c(NCc3ccccc3)nc(Cl)nn2c1Br)CC1CC1` [Compound 9, (S)-6-(2-amino-3-cyclopropylpropyl)-N-benzyl-7-bromo-2-chloropyrrolo[2,1-f][1,2,4]triazin-4-amine], for which the IC50 is 0.501 to 5 µM.
For the compound `N[C@H](Cc1cc2c(NCc3ccccc3F)nc(Cl)nn2c1Br)CC1CC1` [Compound 10, (S)-6-(2-amino-3-cyclopropylpropyl)-7-bromo-2-chloro-N-(2-fluorobenzyl)pyrrolo[2,1-f][1,2,4]triazin-4-amine], the IC50 is 0.501 to 5 µM.
`N[C@H](Cc1cc2c(NCc3ccccc3)nc(Cl)nn2c1Cl)CC1CC1` [Compound 11, (S)-6-(2-amino-3-cyclopropylpropyl)-N-benzyl-2,7-dichloropyrrolo[2,1-f][1,2,4]triazin-4-amine]: the IC50 lay in the range of 0.501 to 5 µM.
`N[C@H](Cc1cc2c(NCc3ccccc3F)nc(Cl)nn2c1Cl)CC1CC1` [Compound 12, (S)-6-(2-amino-3-cyclopropylpropyl)-2,7-dichloro-N-(2-fluorobenzyl)pyrrolo[2,1-f][1,2,4]triazin-4-amine]: the IC50 lay within 0.501 to 5 µM.
`Cc1c(C[C@@H](N)CC2CC2)cc2c(NCc3ccccc3)nc(Cl)nn12` [Compound 13, (S)-6-(2-amino-3-cyclopropylpropyl)-N-benzyl-2-chloro-7-methylpyrrolo[2,1-f][1,2,4]triazin-4-amine]: the IC50 is 5 to 10 µM.
`Cc1c(C[C@@H](N)CC2CC2)cc2c(NCc3ccccc3F)nc(Cl)nn12` [Compound 14, (S)-6-(2-amino-3-cyclopropylpropyl)-2-chloro-N-(2-fluorobenzyl)-7-methylpyrrolo[2,1-f][1,2,4]triazin-4-amine]: the IC50 fell in the range of 5 to 10 µM.
